Results reported in patent US20210205329A1 (The University of North Carolina at Chapel Hill, priority 2018, published 2021).

Molecular target: T1, TLR4/MD-2 complex (Mus musculus, UniProt Q9QUK6)
T1 construct: protein extracts were collected 24 hrs post-treatment and immunoprecipitated with antibody to TLR4; endogenous in cells; host or cells: RAW264.7
T1 sequence (Q9QUK6 26-835): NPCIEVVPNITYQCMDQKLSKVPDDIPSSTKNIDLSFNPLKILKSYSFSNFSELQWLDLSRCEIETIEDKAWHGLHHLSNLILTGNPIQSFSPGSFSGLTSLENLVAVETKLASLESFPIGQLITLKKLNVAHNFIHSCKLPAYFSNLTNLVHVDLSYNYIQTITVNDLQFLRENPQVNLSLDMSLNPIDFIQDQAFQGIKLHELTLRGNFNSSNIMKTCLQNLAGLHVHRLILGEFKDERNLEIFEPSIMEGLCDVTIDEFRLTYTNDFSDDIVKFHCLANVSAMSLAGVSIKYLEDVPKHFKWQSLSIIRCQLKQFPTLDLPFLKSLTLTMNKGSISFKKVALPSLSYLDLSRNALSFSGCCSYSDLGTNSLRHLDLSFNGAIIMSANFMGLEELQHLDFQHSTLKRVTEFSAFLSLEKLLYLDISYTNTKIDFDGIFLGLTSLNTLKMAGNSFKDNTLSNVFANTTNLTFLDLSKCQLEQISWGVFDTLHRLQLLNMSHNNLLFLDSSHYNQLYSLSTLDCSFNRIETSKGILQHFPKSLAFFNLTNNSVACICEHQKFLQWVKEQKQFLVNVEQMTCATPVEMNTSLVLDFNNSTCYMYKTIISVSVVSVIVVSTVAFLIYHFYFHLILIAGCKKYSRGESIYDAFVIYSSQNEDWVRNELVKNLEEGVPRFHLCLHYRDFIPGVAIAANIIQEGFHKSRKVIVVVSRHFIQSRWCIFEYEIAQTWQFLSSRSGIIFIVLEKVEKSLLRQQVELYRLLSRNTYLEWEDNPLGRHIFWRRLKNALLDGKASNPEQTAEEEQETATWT
Experiment: TLR4/MD-2 co-immunoprecipitation in LPS-treated RAW264.7 cells
Assay type: cell-based
Settings: 1.0 μM; LPS 1 μg/ml; 24 hrs post-treatment
Experimental: Co-Immunoprecipitation Assay RAW264.7 cells [treated with LPS (1 μg/ml), 3α,5α-THP (1 μM) or pregnenolone (1 μM)] were exposed to chemical protein crosslinking (Poulopoulos et al, 2009) at 24 hrs post-treatment. Briefly, the cells were incubated (20 min on ice) with 1 mM of the cleavable, membrane-permeable crosslinker DSP (Thermo Fisher Scientific, Cat. #PG82081). Rat VTA homogenates were incubated (20 min on ice) with 200 μM of DSP. The crosslinker was quenched in 1 M Tris buffer (pH 7.5) (to a final concentration of 10-20 mM), and the material was centrifuged at 21,000×g for 15 min. Proteins from the cells were extracted with Pierce IP Lysis Buffer (Thermo Fisher Scientific, Cat. #87787) supplemented with protease and phosphatase inhibitor cocktails (Sigma). Proteins from the VTA were extracted with CelLytic MT (dialyzable mild detergent, bicine and 150 mM NaCl; Sigma Aldrich, St. Louis, Mo., USA, Cat. #C3228) supplemented with protease and phosphatase inhibitor cocktails (Sigma) according to the manufacturers instructions. […]

| Structure (SMILES) | reduction of MD-2 co-precipitated with TLR4 [%] |
| --- | --- |
| CC(=O)[C@H]1CC[C@H]2[C@@H]3CC[C@H]4C[C@H](O)CC[C@]4(C)[C@H]3CC[C@]12C [3α,5α-THP, (3α,5α)3-hydroxypregnan-20-one] | 45.4±6.9 |
| CC(=O)[C@H]1CC[C@H]2[C@@H]3CC=C4C[C@@H](O)CC[C@]4(C)[C@H]3CC[C@]12C [pregnenolone] | 57.2±7.3 |
